Reference: ChEMBL document CHEMBL4513161, “CO-ADD screening of MMV (CH) - Pandemic Response Box” (2021)

What was measured:
HEK293 = assay: cells; format: functional, Homo sapiens, ATCC CRL1573; details: Homo sapiens, ATCC CRL1573, HEK293; ASSAY_TEST Inhibition of Cell Viability; detection method Resazurin; Fluorescence (ex560/em590); MEDIA DMEM with 10% FBS; plate type 384well; TC; CORNING #3712; time 18 hr; read-out: CC50
Pseudomonas aeruginosa [1] = assay: Antibacterial activity against Pseudomonas aeruginosa PAO397 [PAO1 d(mexAB-oprM) d(mexCD-oprJ) d(mexEF-oprN) d(mexJKL) d(mexXY) d(opmH)] (CO-ADD:GN_211); MIC in CAMBH media using NBS plates, by OD(600); format: functional; details: ASSAY_TEST Inhibition of Bacterial Growth, detection method Absorption (OD600), MEDIA CAMHB, plate type 384well, CORNING #3640, time 18 hr
Staphylococcus aureus = assay: microbe, parasite or virus in culture; details: ATCC 43300, 18 h, ASSAY_TEST Inhibition of Bacterial Growth, detection method Absorption (OD600), MEDIA CAMHB, plate type 384well, NBS, CORNING #3640
Description: Antibacterial activity against Staphylococcus aureus MRSA ATCC 43300 (CO-ADD:GP_020); MIC in CAMBH media, using NBS plates, by OD(600)

Escherichia coli = assay: microbe, parasite or virus in culture; details: ATCC 25922, 18 h, ASSAY_TEST Inhibition of Bacterial Growth, detection method Absorption (OD600), MEDIA CAMHB, plate type 384well, NBS, CORNING #3640
Description: Antibacterial activity against Escherichia coli ATCC 25922 (CO-ADD:GN_001); MIC in CAMBH media using NBS plates, by OD(600)

Klebsiella pneumoniae = assay: microbe, parasite or virus in culture; details: ATCC 700603, 18 h, ASSAY_TEST Inhibition of Bacterial Growth, detection method Absorption (OD600), MEDIA CAMHB, plate type 384well, NBS, CORNING #3640
Description: Antibacterial activity against Klebsiella pneumoniae MDR ATCC 70063 (CO-ADD:GN_003); MIC in CAMBH media using NBS plates, by OD(600)

Pseudomonas aeruginosa [2] = assay: microbe, parasite or virus in culture; details: ATCC 27853, 18 h, ASSAY_TEST Inhibition of Bacterial Growth, detection method Absorption (OD600), MEDIA CAMHB, plate type 384well, NBS, CORNING #3640
Description: Antibacterial activity against Pseudomonas aeruginosa ATCC 27853 (CO-ADD:GN_042); MIC in CAMBH media using NBS plates, by OD(600)

Acinetobacter baumannii = assay: microbe, parasite or virus in culture; details: ATCC 19606, 18 h, ASSAY_TEST Inhibition of Bacterial Growth, detection method Absorption (OD600), MEDIA CAMHB, plate type 384well, NBS, CORNING #3640
Description: Antibacterial activity against Acinetobacter baumannii ATCC 19606 (CO-ADD:GN_034); MIC in CAMBH media using NBS plates, by OD600

Candida albicans = assay: microbe, parasite or virus in culture; details: ATCC 90028, ASSAY_TEST Inhibition of Fungal Growth, detection method Absorption (OD530), plate type 384well, NBS, CORNING #3640
Description: Antifungal activity against Candida albicans ATCC 90028 (CO-ADD:FG_001); MIC in YNB media using NBS plates, by OD630

Description for Cryptococcus neoformans: Antifungal activity against Cryptococcus neoformans H99 ATCC 208821 (CO-ADD:FG_002); MIC in YNB media using NBS plates, by Resazurin OD(600-570)

SMILES | MIC (Pseudomonas aeruginosa [1]) | MIC (Cryptococcus neoformans) | MIC (Staphylococcus aureus) | MIC (Escherichia coli) | MIC (Klebsiella pneumoniae) | MIC (Pseudomonas aeruginosa [2]) | MIC (Acinetobacter baumannii) | MIC (Candida albicans) | CC50 (HEK293)
Nc1nc(C(F)(F)F)cc2c1[nH]c(=O)n2Cc1ccccc1 | > 20 µM | > 20 µM | > 20 µM | > 20 µM | > 20 µM | > 20 µM | > 20 µM | > 20 µM | > 20 µM
Cc1cc(-c2ccccc2)c(C(=O)C(=O)Nc2ccc(N3CCN(c4ncc(F)cn4)CC3)cc2)n1C [OLOROFIM] | > 20 µM | > 20 µM | > 20 µM | > 20 µM | > 20 µM | > 20 µM | > 20 µM | > 20 µM | > 20 µM
O=C(NC(=O)N1CCCc2ccccc21)c1ccc(Cl)cc1Cl | > 20 µM | > 20 µM | > 20 µM | > 20 µM | > 20 µM | > 20 µM | > 20 µM | > 20 µM | > 20 µM
Cc1cccc(CC(=O)N[C@H]2CCOC2=O)c1 | > 20 µM | > 20 µM | > 20 µM | > 20 µM | > 20 µM | > 20 µM | > 20 µM | > 20 µM | > 20 µM
Nc1cc(N)c2nc(-c3ccccc3)c(Nc3ccc(F)cc3)nc2c1 | > 20 µM | > 20 µM | > 20 µM | > 20 µM | > 20 µM | > 20 µM | > 20 µM | > 20 µM | 1.91 µM
CCN(CC)CCCC(C)Nc1ccnc2cc(Cl)ccc12 (stereo unspecified) [CHLOROQUINE] | > 20 µM | > 20 µM | > 20 µM | > 20 µM | > 20 µM | > 20 µM | > 20 µM | > 20 µM | > 20 µM
Oc1cc(-c2cccc3ccccc23)[nH]n1 | > 20 µM | > 20 µM | > 20 µM | > 20 µM | > 20 µM | > 20 µM | > 20 µM | > 20 µM | > 20 µM

Second part, led by results:

MIC (Pseudomonas aeruginosa [1]) | MIC (Cryptococcus neoformans) | MIC (Staphylococcus aureus) | MIC (Escherichia coli) | MIC (Klebsiella pneumoniae) | MIC (Pseudomonas aeruginosa [2]) | MIC (Acinetobacter baumannii) | MIC (Candida albicans) | SMILES | CC50 (HEK293)
> 20 µM | > 20 µM | > 20 µM | > 20 µM | > 20 µM | > 20 µM | > 20 µM | > 20 µM | CC(C)(C)c1ccc(OCCn2nc(C(=O)O)c3ccccc3c2=O)cc1 | > 20 µM
> 20 µM | > 20 µM | > 20 µM | > 20 µM | > 20 µM | > 20 µM | > 20 µM | > 20 µM | CCc1cc(CCC(=O)Nc2ccccc2O)c(O)nc1C | > 20 µM
> 20 µM | > 20 µM | > 20 µM | > 20 µM | > 20 µM | > 20 µM | > 20 µM | > 20 µM | O=C(O)CSc1cc(NS(=O)(=O)c2cccc3cccnc23)c2ccccc2c1O | > 20 µM
> 20 µM | > 20 µM | > 20 µM | > 20 µM | > 20 µM | > 20 µM | > 20 µM | > 20 µM | O=C(O)C[C@H]1CC[C@H](c2ccc(-c3ccc(Nc4ccc(C(F)(F)F)nc4)cn3)cc2)CC1 | > 20 µM
> 20 µM | > 20 µM | > 20 µM | > 20 µM | > 20 µM | > 20 µM | > 20 µM | > 20 µM | CCCCc1ccc(-c2nc(C)c(C(=O)OC)s2)cc1 | > 20 µM
> 20 µM | > 20 µM | > 20 µM | > 20 µM | > 20 µM | > 20 µM | > 20 µM | > 20 µM | Cc1c(F)cccc1NC(=O)Nc1ccc(Cl)c(S(=O)(=O)[C@H]2CCCNC2)c1O | 12 µM
> 20 µM | > 20 µM | > 20 µM | > 20 µM | > 20 µM | > 20 µM | > 20 µM | > 20 µM | CN(O)C(=O)c1cc2c(CN3CCC[C@H]3C(N)=O)cn(Cc3ccc(F)cc3)c2cn1 | > 20 µM
